In ChEMBL document CHEMBL1201862, “PubChem BioAssay data set” (2004):
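1) Cells in 96-well plates. 2) Compound, 48 h, 5 concentrations. 3) Linear interpolation between surrounding doses. 4) Unreached endpoint = highest concentration. At the GI50, growth is halved.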 Active and inactive are the calls of the source. No stated cut-off is given here; in the data, active = GI50 up to about 1.1 µM and inactive = higher.

Tests used:
Assay in all cases: NCI anticancer screen, dose series, 48 h
COLO 205 = tested on: COLO 205
EKVX = tested on: EKVX
UACC-257 = tested on: UACC-257
SR = tested on: SR
OVCAR-4 = tested on: OVCAR-4
SNB-75 = tested on: SNB-75
PC-3 = tested on: PC-3
K562 = tested on: K562
Hs-578T = tested on: Hs-578T
NCI-H460 = tested on: NCI-H460
HCC 2998 = tested on: HCC 2998
HT-29 = tested on: HT-29
RPMI-8226 = tested on: RPMI-8226
M14 = tested on: M14
KM12 = tested on: KM12
OVCAR-5 = tested on: OVCAR-5
SF-539 = tested on: SF-539
CAKI-1 = tested on: CAKI-1
SK-MEL-5 = tested on: SK-MEL-5
MDA-N = tested on: MDA-N

Measured: GI50

CCCCCCCCCCCCCCCC[N+](C)(C)CCl
inactive: COLO 205 1.65 µM | EKVX 8.61 µM | UACC-257 4.71 µM | SR 1.99 µM | OVCAR-4 2.86 µM | SNB-75 1.86 µM | PC-3 2.17 µM | K562 1.75 µM | Hs-578T 1.85 µM | NCI-H460 1.77 µM | HCC 2998 1.66 µM | HT-29 1.59 µM | RPMI-8226 1.76 µM | M14 2.31 µM | KM12 1.46 µM | OVCAR-5 6.89 µM | SF-539 2.4 µM | CAKI-1 2.67 µM | SK-MEL-5 1.68 µM | MDA-N 3.72 µM

Cc1ccc(S(=O)(=O)NC2C(=O)c3ccccc3C(=O)C2n2ccnc2)cc1 (stereo not given)
inactive: COLO 205 71 µM | EKVX > 100 µM | UACC-257 > 100 µM | SR 67.8 µM | OVCAR-4 30.9 µM | SNB-75 > 100 µM | PC-3 > 100 µM | K562 > 100 µM | Hs-578T > 100 µM | NCI-H460 > 100 µM | HCC 2998 > 100 µM | HT-29 > 100 µM | RPMI-8226 > 100 µM | M14 > 100 µM | KM12 > 100 µM | OVCAR-5 > 100 µM | SF-539 > 100 µM | CAKI-1 > 100 µM | SK-MEL-5 48.5 µM | MDA-N 15.4 µM

CCOC(=O)C(NC(=O)c1ccccc1)(c1ccc(S(=O)(=O)Nc2onc(C)c2C)cc1)C(F)(F)F (stereo not given)
inactive: COLO 205 > 100 µM | EKVX > 100 µM | UACC-257 > 100 µM | SR > 100 µM | OVCAR-4 > 100 µM | SNB-75 > 100 µM | PC-3 > 100 µM | K562 > 100 µM | Hs-578T > 100 µM | NCI-H460 > 100 µM | HCC 2998 > 100 µM | HT-29 > 100 µM | RPMI-8226 > 100 µM | M14 > 100 µM | KM12 > 100 µM | OVCAR-5 > 100 µM | SF-539 > 100 µM | CAKI-1 > 100 µM | SK-MEL-5 > 100 µM | MDA-N > 100 µM

COc1ccc(-n2c(Cn3nnc(-c4cccnc4)n3)nn(C3OC(COC(=O)c4ccccc4)C(OC(=O)c4ccccc4)C3OC(=O)c3ccccc3)c2=S)cc1 (stereo not given)
inactive: COLO 205 > 100 µM | EKVX 39.4 µM | UACC-257 > 100 µM | SR > 100 µM | OVCAR-4 > 100 µM | SNB-75 > 100 µM | PC-3 > 100 µM | K562 > 100 µM | Hs-578T > 100 µM | NCI-H460 > 100 µM | HCC 2998 > 100 µM | HT-29 50.9 µM | RPMI-8226 > 100 µM | M14 > 100 µM | KM12 > 100 µM | OVCAR-5 > 100 µM | SF-539 > 100 µM | CAKI-1 > 100 µM | SK-MEL-5 > 100 µM | MDA-N > 100 µM

OCCCCCCCCCCCOc1ccc(C2OCC3(CO2)COC(c2ccc(OCCCCCCCCCCCO)cc2)OC3)cc1 (stereo not given)
inactive: COLO 205 > 50 µM | EKVX > 50 µM | UACC-257 > 50 µM | SR > 50 µM | OVCAR-4 > 50 µM | SNB-75 > 50 µM | PC-3 > 50 µM | K562 > 50 µM | Hs-578T > 50 µM | NCI-H460 > 50 µM | HCC 2998 > 50 µM | HT-29 > 50 µM | RPMI-8226 > 50 µM | M14 > 50 µM | KM12 > 50 µM | OVCAR-5 > 50 µM | SF-539 > 50 µM | CAKI-1 > 50 µM | SK-MEL-5 > 50 µM | MDA-N > 50 µM
